Earlier results, collected in patent US20050112339A1, “Antimicrobial protection for plastic structures” (priority 2003, published 2005).

Conditions: in water

Row | Molecule | water solubility
1 | On1ccccc1=S.On1ccccc1=S.[Cu] [copper pyrithione] | 0.1 milligrams per liter
2 | [Na+].[O-][n+]1ccccc1[S-] [sodium pyrithione] | 450 grams per liter
3 | zinc pyrithione | 6 milligrams per liter
